Test results from patent US20230053540A1, “TREATMENT OF LIVER INJURY” (Massachusetts Institute of Technology, priority 2019, published 2023).

Test system: hepatocytes
Experiment: Seq-Well scRNA-Seq of hepatocytes after APAP overdose (signature scores, DEG vs untreated)
Type: in vivo, mouse
[1] = A24 (24 h post-APAP) vs other clusters, Wilcox

CC(=O)Nc1ccc(O)cc1 [APAP, acetaminophen]
Vcam1 avg_logFC (A6 vs UT): 0.4574
Vcam1 pct.1 (A6 vs UT): 0.134
Vkorc1 avg_logFC (A6 vs UT): −0.4042
Vkorc1 pct.1 (A6 vs UT): 0.296
Vsig4 avg_logFC (A6 vs UT): 0.4833
Vsig4 pct.1 (A6 vs UT): 0.117
Wbp1l avg_logFC (A6 vs UT): 0.5535
Wdr26 avg_logFC (A6 vs UT): 0.4325
Wdr26 pct.1 (A6 vs UT): 0.549
Wfdc17 avg_logFC (A6 vs UT): 0.4867
Wfdc17 pct.1 (A6 vs UT): 0.177
Xbp1 avg_logFC (A6 vs UT): 0.6032
Xrn2 A6logFC (A6 vs UT): 0.2985
Xrn2 avg_logFC (A6 vs UT): 0.2985
Xrn2 pct.1 (A6 vs UT): 0.387
Yap1 A6logFC (A6 vs UT): 0.3281
Ythdc1 A6logFC (A6 vs UT): 0.2641
Ythdc1 avg_logFC (A6 vs UT): 0.2641
Ythdc1 pct.1 (A6 vs UT): 0.301
Ywhag avg_logFC (A6 vs UT): 0.5824
Zbtb20 avg_logFC (A6 vs UT): 0.4715
Zbtb20 pct.1 (A6 vs UT): 0.566
Zfand5 A6logFC (A6 vs UT): 0.2882
Zfand5 avg_logFC (A6 vs UT): 0.2882
Zfand5 pct.1 (A6 vs UT): 0.401
Zfp106 A6logFC (A6 vs UT): 0.3369
Zfp106 avg_logFC (A6 vs UT): 0.3369
Zfp106 pct.1 (A6 vs UT): 0.391
Zfp259 A6logFC (A6 vs UT): 0.2556
Zfp259 avg_logFC (A6 vs UT): 0.2556
Zfp259 pct.1 (A6 vs UT): 0.32
mmu-mir-6240 avg_logFC (A6 vs UT): 1.101
mt-Co2 avg_logFC (A6 vs UT): −1.105
mt-Co3 avg_logFC (A6 vs UT): −0.7059
mt-Co3 pct.1 (A6 vs UT): 0.346
mt-Nd1 avg_logFC (A6 vs UT): −0.3883
mt-Nd4 avg_logFC (A6 vs UT): −0.6388
n-R5-8s1 avg_logFC (A6 vs UT): 0.7661
avg_logFC AA474408 [1]: 0.4148
avg_logFC Abca1 [1]: 0.3831
avg_logFC Acly [1]: 0.4101
avg_logFC Acox1 [1]: 0.2743
avg_logFC Acsl4 [1]: 0.299
avg_logFC Adh4 [1]: 0.392
avg_logFC Ak3 [1]: 0.2505
avg_logFC Aox3 [1]: 0.3489
avg_logFC Arcn1 [1]: 0.3044
avg_logFC Atp8b1 [1]: 0.361
avg_logFC Atp11c [1]: 0.2568
avg_logFC Atxn1 [1]: 0.325
avg_logFC Calm1 [1]: 0.3702
avg_logFC Calu [1]: 0.3005
avg_logFC Canx [1]: 0.2771
avg_logFC Cltc [1]: 0.3397
avg_logFC Cmah [1]: 0.4243
avg_logFC Copa [1]: 0.3334
avg_logFC Cps1 [1]: 0.2775
avg_logFC Ctnnb1 [1]: 0.329
avg_logFC Cxcl1 [1]: 0.453
avg_logFC Cyb5r3 [1]: 0.3097
avg_logFC Ddost [1]: 0.2909
avg_logFC Dhcr24 [1]: 0.2824
avg_logFC Dnajb11 [1]: 0.3288
avg_logFC Dnajc12 [1]: 0.3241
avg_logFC Echdc1 [1]: 0.2818
avg_logFC Edem1 [1]: 0.2675
avg_logFC Efna1 [1]: 0.3161
avg_logFC Eif4g1 [1]: 0.2763
avg_logFC Eif4g2 [1]: 0.3515
avg_logFC Eprs [1]: 0.2513
avg_logFC Etnk1 [1]: 0.3194
avg_logFC Fam120a [1]: 0.2583
avg_logFC Fasn [1]: 0.2699
avg_logFC Fndc3b [1]: 0.3202
avg_logFC Fos [1]: 0.3632
avg_logFC Gjb2 [1]: 0.2998
avg_logFC Gm5424 [1]: 0.262
avg_logFC Gm24245 [1]: 0.414
avg_logFC Grlf1 [1]: 0.2556
avg_logFC Hnf4a [1]: 0.255
avg_logFC Hs3st3b1 [1]: 0.3219
avg_logFC Hsd3b5 [1]: 0.3009
avg_logFC Hsd17b2 [1]: 0.3231
avg_logFC Hspa13 [1]: 0.342
avg_logFC Ibtk [1]: 0.2959
avg_logFC Il6st [1]: 0.3011
avg_logFC Il13ra1 [1]: 0.2889
avg_logFC Insig1 [1]: 0.4125
avg_logFC Kmo [1]: 0.2687
avg_logFC Lasp1 [1]: 0.2608
avg_logFC Lgr4 [1]: 0.2572
avg_logFC Lman1 [1]: 0.2518
avg_logFC Lpgat1 [1]: 0.2525
avg_logFC Lrg1 [1]: 0.3096
avg_logFC Lrp1 [1]: 0.4837
avg_logFC Lrrc59 [1]: 0.2688
avg_logFC Met [1]: 0.2512
avg_logFC Mlec [1]: 0.3405
avg_logFC Mtss1 [1]: 0.2522
avg_logFC Mtus1 [1]: 0.3125
avg_logFC Mug2 [1]: 0.3166
avg_logFC Nab1 [1]: 0.2601
avg_logFC Nars [1]: 0.3127
avg_logFC Nedd4 [1]: 0.3306
avg_logFC Nr1d2 [1]: 0.3855
avg_logFC Nr5a2 [1]: 0.2599
avg_logFC Nrp1 [1]: 0.33
avg_logFC Ostc [1]: 0.3082
avg_logFC Pnpla7 [1]: 0.3966
avg_logFC Prg4 [1]: 0.4007
avg_logFC Prkd3 [1]: 0.3041
avg_logFC Proz [1]: 0.28
avg_logFC Pten [1]: 0.2663
avg_logFC Ptprf [1]: 0.2888
avg_logFC Qsox1 [1]: 0.2818
avg_logFC Rab1 [1]: 0.3145
avg_logFC Rdx [1]: 0.276
avg_logFC Rpn1 [1]: 0.3992
avg_logFC Rrbp1 [1]: 0.2968
avg_logFC Sdf2l1 [1]: 0.3078
avg_logFC Sec31a [1]: 0.2596
avg_logFC Sec61b [1]: 0.3008
avg_logFC Sel1l [1]: 0.2833
avg_logFC Sh3bgrl [1]: 0.2668
avg_logFC Slc3a1 [1]: 0.3074
avg_logFC Slc38a10 [1]: 0.2557
avg_logFC Spcs3 [1]: 0.3907
avg_logFC Srebf1 [1]: 0.3149
avg_logFC Srp72 [1]: 0.28
avg_logFC Srpr [1]: 0.2914
avg_logFC Ssr1 [1]: 0.3129
avg_logFC Stard4 [1]: 0.2922
avg_logFC Stt3b [1]: 0.2648
avg_logFC Tmed7 [1]: 0.3715
avg_logFC Tmem30a [1]: 0.3056
avg_logFC Trip12 [1]: 0.2832
avg_logFC Txndc5 [1]: 0.2758
avg_logFC Uggt1 [1]: 0.2805
avg_logFC Uso1 [1]: 0.3202
avg_logFC Usp4 [1]: 0.2959
avg_logFC Usp9x [1]: 0.3387
avg_logFC Zbtb20 [1]: 0.3135
Atp11c A24logFC (A24 vs UT): 0.2605
Brd2 A24logFC (A24 vs UT): 0.2664
Caprin1 A24logFC (A24 vs UT): 0.2628
Copz1 A24logFC (A24 vs UT): 0.2577
Ctsc A24logFC (A24 vs UT): 0.3004
Ddost A24logFC (A24 vs UT): 0.2504
Deptor A24logFC (A24 vs UT): 0.2606
Eif4b A24logFC (A24 vs UT): 0.256
Fasn A24logFC (A24 vs UT): 0.2914
Gm20594 A24logFC (A24 vs UT): −0.36
Lasp1 A24logFC (A24 vs UT): 0.253
Proz A24logFC (A24 vs UT): 0.2632
Rnf13 A24logFC (A24 vs UT): 0.2553
Ubb A24logFC (A24 vs UT): −0.2593
avg_logFC 1110008F13Rik (A24 vs untreated (UT)): −0.4553
avg_logFC AA474408 (A24 vs untreated (UT)): 0.4364
avg_logFC Aadac (A24 vs untreated (UT)): −0.4038
avg_logFC Abca1 (A24 vs untreated (UT)): 0.4394
avg_logFC Acaa1b (A24 vs untreated (UT)): −0.8508
avg_logFC Acot1 (A24 vs untreated (UT)): −0.2862
avg_logFC Acox1 (A24 vs untreated (UT)): 0.2752
avg_logFC Acsl1 (A24 vs untreated (UT)): −0.3703
avg_logFC Acsl4 (A24 vs untreated (UT)): 0.3147
avg_logFC Actb (A24 vs untreated (UT)): 0.3845
avg_logFC Adh1 (A24 vs untreated (UT)): −0.342
avg_logFC Adh4 (A24 vs untreated (UT)): 0.3769
avg_logFC Ahcy (A24 vs untreated (UT)): −0.563
avg_logFC Ak3 (A24 vs untreated (UT)): 0.289
avg_logFC Akr1c6 (A24 vs untreated (UT)): −0.3176
avg_logFC Alas1 (A24 vs untreated (UT)): −0.4898
avg_logFC Aldh3a2 (A24 vs untreated (UT)): −0.3008
avg_logFC Ankrd55 (A24 vs untreated (UT)): −1.874
avg_logFC Aox3 (A24 vs untreated (UT)): 0.2878
avg_logFC Apcs (A24 vs untreated (UT)): 0.6067
avg_logFC Apoa2 (A24 vs untreated (UT)): −0.5455
avg_logFC Apoa5 (A24 vs untreated (UT)): −0.299
avg_logFC Apob (A24 vs untreated (UT)): 0.4272
avg_logFC Apoc1 (A24 vs untreated (UT)): −0.3803
avg_logFC Apoc3 (A24 vs untreated (UT)): −0.4404
avg_logFC Apoc4 (A24 vs untreated (UT)): −0.4285
avg_logFC Apoe (A24 vs untreated (UT)): −0.4213
avg_logFC Arcn1 (A24 vs untreated (UT)): 0.3278
avg_logFC Arrdc3 (A24 vs untreated (UT)): 0.5269
avg_logFC Atp8b1 (A24 vs untreated (UT)): 0.3628
avg_logFC Atp5h (A24 vs untreated (UT)): −0.5795
avg_logFC Atxn1 (A24 vs untreated (UT)): 0.3049
avg_logFC B2m (A24 vs untreated (UT)): −0.418
avg_logFC BC025446 (A24 vs untreated (UT)): 0.2942
avg_logFC Bhmt (A24 vs untreated (UT)): −0.5202
avg_logFC C3 (A24 vs untreated (UT)): 0.4495
avg_logFC C8a (A24 vs untreated (UT)): 0.3337
avg_logFC C8b (A24 vs untreated (UT)): 0.3187
avg_logFC C8g (A24 vs untreated (UT)): −0.482
avg_logFC Calm1 (A24 vs untreated (UT)): 0.4131
avg_logFC Calr (A24 vs untreated (UT)): 0.5551
avg_logFC Calu (A24 vs untreated (UT)): 0.3041
avg_logFC Canx (A24 vs untreated (UT)): 0.3434
avg_logFC Cat (A24 vs untreated (UT)): 0.2626
avg_logFC Cebpb (A24 vs untreated (UT)): −0.4716
avg_logFC Ces1c (A24 vs untreated (UT)): −0.2783
